In publication PMC6178189 (Oxidative Medicine and Cellular Longevity, 2018):
≈ marks a conversion by molar mass, not a printed value.

Target: T1, rat intestinal α-glucosidase
T1 construct: gene Si; crude saline extract of commercial rat intestinal acetone powder (Sigma-Aldrich); mixed brush-border alpha-glucosidases, not purified
Assay: p-nitrophenol release from pNPG, […] nm
Format: biochemical
Details: 5 mM p-nitrophenyl glucopyranoside (maltose or sucrose also named in method; substrate of the table value not told), 0.1 M phosphate pH 6.9, 37°C, 30 min, crude enzyme

IC50 (mg/mL) / α-Glucosidase: 1.63 ± 0.10 mg/mL (≈ 2520 µM)
Compound: C[C@H]1O[C@H](O[C@H]2[C@H](O)[C@@H](O)[C@@H](O[C@H]3[C@H](O)[C@@H](O)C(O)O[C@@H]3CO)O[C@@H]2CO)[C@H](O)[C@@H](O)[C@@H]1N[C@H]1C=C(CO)[C@@H](O)[C@H](O)[C@H]1O (stereo partly shown) [acarbose]
